Tests used:
A549 = assay: cells; settings: Homo sapiens, A549, 48 h
SW480 = assay: cells; settings: Homo sapiens, SW480, 48 h
HeLa = assay: cells; settings: Homo sapiens, 48 h
[1] = biological target: T1, Indoleamine 2,3-dioxygenase 1 (Homo sapiens, UniProt P14902); assay: Inhibition of human recombinant IDO1 measured after 60 mins by fluorescence based analysis
Target sequence in this assay (P14902 whole entry): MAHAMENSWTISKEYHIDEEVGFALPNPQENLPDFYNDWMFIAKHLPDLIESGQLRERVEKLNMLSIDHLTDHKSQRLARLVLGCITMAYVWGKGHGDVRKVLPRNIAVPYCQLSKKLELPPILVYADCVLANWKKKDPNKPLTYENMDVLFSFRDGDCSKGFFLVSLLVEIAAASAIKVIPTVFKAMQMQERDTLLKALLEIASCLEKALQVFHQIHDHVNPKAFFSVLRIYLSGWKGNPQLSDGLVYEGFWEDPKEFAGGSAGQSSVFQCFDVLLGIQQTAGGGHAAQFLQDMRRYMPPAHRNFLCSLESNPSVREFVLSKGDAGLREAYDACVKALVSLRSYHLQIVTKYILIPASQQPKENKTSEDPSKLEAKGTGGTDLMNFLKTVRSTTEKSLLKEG

HCT-116 = assay: cells; settings: Homo sapiens, HCT-116, 48 h
[2] = biological target: T1, Indoleamine 2,3-dioxygenase 1; assay: Inhibition of IDO1 in IFN-gamma treated human HeLa cells incubated for 48 hrs by absorbance based analysis; type: cell-based
Target sequence in this assay (P14902 whole entry): as above

[3] = Toxicity in BALB/c mouse assessed as change in body weight at 100 mg/kg measured upto 22 days; type: organism-based; settings: in vivo, 528 h, time < 22 day
CT26 [4] = assay: Antitumor activity against mouse CT26 cells xenografted in BALB/c mouse model assessed as reduction in tumor weight at 100 mg/kg measured every 3 days for 21 days by caliper method relative to control; type: functional; design: scale not given: the % may be the effect or the level left; settings: time 21 day
CT26 [5] = assay: Antitumor activity against mouse CT26 cells xenografted in BALB/c mouse model assessed as relative tumor volume growth at 100 mg/kg measured every 3 days for 21 days by caliper method relative to control; type: functional; settings: time 21 day
[6] = Toxicity in BALB/c mouse assessed as pathological changes in lungs at 50 to 100 mg/kg; type: organism-based; settings: in vivo, dose 50-100 mg/kg
[7] = biological target: T1, Indoleamine 2,3-dioxygenase 1; assay: Binding affinity to human recombinant IDO1 assessed as dissociation constant measured for 60 sec by SPR assay; settings: dose 0.78-25 µM
Target sequence in this assay (P14902 whole entry, looked up): as the sequence (P14902 whole entry) above

[8] = Toxicity in BALB/c mouse assessed as pathological changes in liver at 50 to 100 mg/kg; type: organism-based; settings: in vivo, dose 50-100 mg/kg
[9] = biological target: T1, Indoleamine 2,3-dioxygenase 1; assay: Binding affinity to human recombinant IDO1 heme iron assessed as shift in soret peak at 2 mM by UV-visible spectroscopic analysis (reference value: […])
Target sequence in this assay (P14902 whole entry, looked up): as the sequence (P14902 whole entry) above

[10] = Toxicity in BALB/c mouse assessed as pathological changes in heart at 50 to 100 mg/kg; type: organism-based; settings: in vivo, dose 50-100 mg/kg
CT26 [11] = assay: Antitumor activity against mouse CT26 cells xenografted in BALB/c mouse model assessed as reduction in tumor weight at 50 mg/kg measured every 3 days for 21 days by caliper method relative to control; type: functional; design: scale not given: the % may be the effect or the level left; settings: time 21 day
[12] = Toxicity in BALB/c mouse assessed as pathological changes in spleen at 50 to 100 mg/kg; type: organism-based; settings: in vivo, dose 50-100 mg/kg
CT26 [13] = assay: Antitumor activity against mouse CT26 cells xenografted in BALB/c mouse model assessed as relative tumor volume growth at 50 mg/kg measured every 3 days for 21 days by caliper method relative to control; type: functional; settings: time 21 day
[14] = Toxicity in BALB/c mouse assessed as change in body weight at 50 to 100 mg/kg measured upto 22 days; type: organism-based; settings: in vivo, 528 h, dose 50-100 mg/kg, time < 22 day
[15] = Toxicity in BALB/c mouse assessed as pathological changes in kidney at 50 to 100 mg/kg; type: organism-based; settings: in vivo, dose 50-100 mg/kg
[16] = biological target: T1, Indoleamine 2,3-dioxygenase 1; assay: Binding affinity to human recombinant IDO1 assessed as dissociation rate constant measured for 60 sec by SPR assay
Target sequence in this assay (P14902 whole entry): as above

Row | SMILES | IC50 (A549) [µM] | IC50 (SW480) [µM] | IC50 (HeLa) [µM] | IC50 [1] [µM] | IC50 (HCT-116) [µM] | IC50 [2] [µM] | further results
1 | Nc1nonc1C(=NO)Nc1ccc(F)c(Cl)c1 | – | – | – | – | – | – | Activity [3]: Non-Toxic; Activity (CT26 [4]): 70.9%; Activity (CT26 [5]): 26.05%
2 | COc1ccc2/c(=N/O)cc(C(=O)N3CCN(S(=O)(=O)c4ccc([N+](=O)[O-])cc4)CC3)oc2c1 | > 50 | > 50 | 30.1 | 3.58 | > 50 | 5.66 | –
3 | COc1ccc2/c(=N/O)cc(C(=O)N3CCN(S(=O)(=O)c4cccc([N+](=O)[O-])c4)CC3)oc2c1 | > 50 | > 50 | > 50 | 1.95 | 19.4 | 4.46 | –
4 | Cc1ccc2/c(=N/O)cc(C(=O)N3CCN(S(=O)(=O)c4ccc(F)cc4)CC3)oc2c1 | > 50 | 31.2 | > 50 | 9.18 | 34.8 | 9.29 | –
5 | Cn1cc(C[C@H](N)C(=O)O)c2ccccc21 [(L)-1-METHYLTRYPTOPHAN] | – | – | – | – | – | – | Activity [3]: Non-Toxic; Activity (CT26 [4]): 45.6%
6 | COc1ccc2/c(=N/O)cc(C(=O)N3CCN(S(=O)(=O)c4ccccc4C(F)(F)F)CC3)oc2c1 | > 50 | > 50 | 38 | 8.85 | > 50 | > 10 | –
7 | COc1ccc2/c(=N/O)cc(C(=O)N3CCN(S(=O)(=O)c4cccc(F)c4)CC3)oc2c1 | > 50 | > 50 | 42.8 | 2.38 | > 50 | 4.13 | –
8 | COc1ccc2/c(=N/O)cc(C(=O)N3CCN(S(=O)(=O)c4ccc(C(F)(F)F)cc4)CC3)oc2c1 | > 50 | > 50 | > 50 | 2.69 | > 50 | 6.37 | –
9 | COc1ccc2/c(=N/O)cc(C(=O)N3CCN(S(=O)(=O)c4ccc(F)c(F)c4)CC3)oc2c1 | > 50 | 28.6 | > 50 | 0.64 | > 50 | 1.04 | Activity [6]: Non-Toxic; Activity [7]: Dose-Dependent Effect; Activity [8]: Non-Toxic; Activity [9]: 421 nm; Activity [10]: Non-Toxic; Activity (CT26 [11]): 36.2%; Activity (CT26 [4]): 60.4%; Activity [12]: Non-Toxic; Activity (CT26 [13]): 63.52%; Activity (CT26 [5]): 38.01%; Activity [14]: Non-Toxic; Activity [15]: Non-Toxic; koff [16]: 0.11 s⁻¹
10 | COc1ccc(S(=O)(=O)N2CCN(C(=O)c3c/c(=N\O)c4ccc(OC)cc4o3)CC2)cc1 | > 50 | 39.2 | 36.8 | 6.35 | 29.5 | 8.52 | –
11 | COc1ccc2/c(=N/O)cc(C(=O)N3CCN(S(=O)(=O)c4ccccc4C)CC3)oc2c1 | > 50 | > 50 | > 50 | > 10 | 23.5 | > 10 | –
12 | Cc1ccc2/c(=N/O)cc(C(=O)N3CCN(S(=O)(=O)c4ccc(F)c(F)c4)CC3)oc2c1 | > 50 | 27.6 | > 50 | 5.59 | 4.18 | 5.75 | –
13 | COc1ccc(S(=O)(=O)N2CCN(C(=O)c3c/c(=N\O)c4ccc(C)cc4o3)CC2)cc1OC | > 50 | > 50 | > 50 | 6.23 | > 50 | 7.8 | –
14 | COc1ccc2/c(=N/O)cc(C(=O)N3CCN(S(=O)(=O)c4ccc(OC)c(OC)c4)CC3)oc2c1 | > 50 | > 50 | 34 | 0.92 | 47.8 | 1.68 | –
15 | COc1ccc2/c(=N/O)cc(C(=O)N3CCN(S(=O)(=O)c4ccc(F)cc4)CC3)oc2c1 | > 50 | 12.4 | > 50 | 5.72 | > 50 | 7.23 | –

Second part, led by results:

Row | IC50 (A549) [µM] | IC50 (SW480) [µM] | IC50 (HeLa) [µM] | IC50 [1] [µM] | IC50 (HCT-116) [µM] | IC50 [2] [µM] | SMILES | further results
16 | > 50 | > 50 | 44.8 | 6.14 | > 50 | 9.81 | COc1ccc2/c(=N/O)cc(C(=O)N3CCN(S(=O)(=O)c4cccc(Br)c4)CC3)oc2c1 | –
17 | 41.4 | 17.6 | > 50 | 9.45 | 1.48 | > 10 | COc1ccc(S(=O)(=O)N2CCN(C(=O)c3c/c(=N\O)c4ccc(C)cc4o3)CC2)cc1 | –
18 | 46.1 | > 50 | > 50 | > 10 | 28.3 | > 10 | Cc1ccc2/c(=N/O)cc(C(=O)N3CCN(S(=O)(=O)c4ccc(Br)cc4)CC3)oc2c1 | –
19 | > 50 | > 50 | > 50 | > 10 | > 50 | > 10 | COc1ccc2/c(=N/O)cc(C(=O)N3CCN(S(=O)(=O)c4ccccc4Cl)CC3)oc2c1 | –
20 | > 50 | > 50 | > 50 | 9.42 | 18.5 | > 10 | COc1ccc2/c(=N/O)cc(C(=O)N3CCN(S(=O)(=O)c4ccc(Br)cc4)CC3)oc2c1 | –
21 | > 50 | > 50 | > 50 | > 10 | 15.2 | > 10 | Cc1ccc2/c(=N/O)cc(C(=O)N3CCN(S(=O)(=O)c4ccc(Cl)cc4)CC3)oc2c1 | –
22 | > 50 | 17.1 | 29.4 | 7.52 | 6.44 | 8.84 | Cc1ccc2/c(=N/O)cc(C(=O)N3CCN(S(=O)(=O)c4cccc([N+](=O)[O-])c4)CC3)oc2c1 | –
23 | > 50 | 11.6 | > 50 | 7.07 | 42 | 7.78 | COc1ccc2/c(=N/O)cc(C(=O)N3CCN(S(=O)(=O)c4ccc(Cl)cc4)CC3)oc2c1 | –
24 | > 50 | > 50 | > 50 | – | > 50 | – | NS(=O)(=O)NCCNc1nonc1/C(=N/O)Nc1ccc(F)c(Br)c1 [EPACADOSTAT] | –
25 | > 50 | > 50 | > 50 | 3.73 | > 50 | 7.61 | COc1ccc2/c(=N/O)cc(C(=O)N3CCN(S(=O)(=O)c4ccc(Cl)c(Cl)c4)CC3)oc2c1 | –
26 | 36.9 | 33.1 | 20.1 | > 10 | 31.1 | > 10 | COc1ccc2/c(=N/O)cc(C(=O)N3CCN(S(=O)(=O)c4ccc(C)cc4)CC3)oc2c1 | –

Reference: ChEMBL document CHEMBL5325421, “Discovery of novel sulfonamide chromone-oxime derivatives as potent indoleamine 2,3-dioxygenase 1 inhibitors” (Eur J Med Chem, 2023)
